Laboratory results: patent US20260234159A1, “SMALL MOLECULE TREATMENT OF FATTY LIVER DISEASE AND HCC” (SCANDIEDGE THERAPEUTICS AB, priority 2023, published 2026)
Where two headings read alike, the source gives them in different places.

Key:
HepG2 cells = assay: Triglyceride (TAG) measurement assay, one week steatosis model; format: cell-based, human; conditions: for activity at 10 µM: Homo sapiens
Procedure: (§1) HepG2 wild type cells were purchased from genome engineering company Synthego. Cells were maintained with Roswell Park Memorial Institute growth media, RPMI, 1640 (R2405, Sigma-Aldrich) and supplemented with 10% fetal bovine serum (FBS, F7524, Sigma-Aldrich), 1% penicillin-streptomycin (P/S, P4333, Sigma-Aldrich). Steatosis induction media was prepared as high glucose Dulbecco's Modified Eagle Media (DMEM, D0819, Sigma-Aldrich) with 10% FBS, 1% P/S media supplemented with 10 μg/ml insulin (I9278, Sigma-Aldrich), and 10 μM T0901317 (T2320, Sigma-Aldrich). HepG2 cells were seeded 6×10^4 cells per well for 96-well plate and 1×10^6 cells per well for 6-well plate. HepG2 cells were incubated with steatosis induce media (SM) for one week by 3 day+2 day+2 day with total three times media exchange.
HepG2 cells were seeded at 6×10^4 cells per well into 96 well plate and induced steatosis for one week with 10 μM of target drugs. After steatosis induction, cells were washed with 200 μl of phosphate buffered saline (PBS) and triglyceride contents was measured by Triglyceride Assay Kit—Quantification (ab65336, Abcam) following manufacturer's instruction. Optical density (O.D) values were detected with microplate reader at 570 nm (Hidex Sense Beta Plus).
(§2) HepG2 cells were seeded at 60,000 cells per well in 96 well plate. Using steatosis induce media, the cells were treated with 10 μM of target drugs for one week. The media was changed 3 times at day 0, day 3 and day 5. TAG assay was performed using MAK266-1KT SDS Triglyceride Quantification Colorimetric kit and cell viability analysis was performed using MTT assay.

[1] = MTT cell viability after one week steatosis (ranking of target molecules); format: cell-based, human; conditions: human, HepG2 cells (wild type); HepG2, 10 μM, one week steatosis induce media, MTT; Control 100.00
Procedure: as §1, §2

[2] = 168 h, HepG2, 10 μM, one week steatosis induce media, Control 100.00, read-out: TAG (%)
[3] = HepG2, 168 h, ratio between TAG content and cell viability, Control 100.0, read-out: TAG/cell viability

Compound | activity at 10 µM (HepG2 cells; [2]) [%] | activity at 10 µM (HepG2 cells; [3]) [%] | viability at 1 week, 10 µM [1] [%] | TAG content/cell viability ratio lower than JNK-IN-5A (HepG2 cells) | ratio between TAG content and cell viability (HepG2 cells) | TAG/cell viability (HepG2 cells; ratio as printed in text with %) [%]
N#Cc1c(NC(=O)c2cccc3ccccc23)sc2c1CCCCC2 [PKL-A56, N-(3-cyano-5,6,7,8-tetrahydro-4H-cyclohepta[b]thiophen-2-yl)-1-naphthamide] | 35.6 | 62.5 | 57 |  |  | 
CC(=O)N1CCc2c(sc(NC(=O)c3cccc4ccccc34)c2C#N)C1 [PKL-A114] | 14.1 | 28.6 | 49.4 |  |  | 
CCOC(=O)CN1CCc2c(sc(NC(=O)c3cccc4ccccc34)c2C#N)C1 [PKL-A118] | 62.1 | 68.2 | 91 |  |  | 
COc1ccc(C(=O)Nc2sc3ccccc3c2C#N)c2ccccc12 [PKL-A149] | 30.8 | 60.5 | 50.9 |  |  | 
COc1cccc(NC(=O)N2CCc3c(sc(NC(=O)c4cccc5ccccc45)c3C#N)C2)c1 [PKL-A151] | 11.5 | 18.7 | 61.6 | more than 3 times | low ratio between TAG content and cell viability | 
Cc1ccccc1NC(=O)N1CCc2c(sc(NC(=O)c3cccc4ccccc34)c2C#N)C1 [PKL-A153] | 13.2 | 31.2 | 42.5 |  |  | 
N#Cc1c(NC(=O)c2cccc3ccccc23)sc2c1CCN(C(=O)Nc1ccccc1[N+](=O)[O-])C2 [PKL-A154] | 13.9 | 30.3 | 46 |  |  | 
N#Cc1c(NC(=O)c2cccc3ccccc23)sc2c1CCN(C(=O)Nc1ccccc1Br)C2 [PKL-A157] | 12.8 | 35.1 | 36.5 |  |  | 
Cc1ccc(F)c(NC(=O)N2CCc3c(sc(NC(=O)c4cccc5ccccc45)c3C#N)C2)c1 [PKL-A160] | 14.9 | 26.4 | 56.4 |  |  | 
N#Cc1c(NC(=O)c2cccc3ccccc23)sc2c1CCN(C(=O)Nc1cccc3ccccc13)C2 [PKL-A161] | 13.2 | 29.8 | 44.1 |  |  | 
CN(C(=O)N1CCc2c(sc(NC(=O)c3cccc4ccccc34)c2C#N)C1)c1ccccc1 [PKL-A162] | 12.3 | 25.1 | 49.2 |  | low ratio between TAG content and cell viability | 25.1
CCN(C)C(=O)N1CCc2c(sc(NC(=O)c3cccc4ccccc34)c2C#N)C1 [PKL-A163] | 12.7 | 27.2 | 46.6 |  |  | 
N#Cc1c(NC(=O)c2cccc3ccccc23)sc2c1CCN(C(=O)N(c1ccccc1)c1ccccc1)C2 [PKL-A164] | 17.3 | 37.6 | 46 |  |  | 
COc1ccc(S(=O)(=O)N2CCc3c(sc(NC(=O)c4cccc5ccccc45)c3C#N)C2)cc1OC [PKL-A179] | 34.7 | 52.2 | 66.5 |  |  | 
N#Cc1c(NC(=O)c2cccc3ccccc23)sc2c1CCN(S(=O)(=O)c1cccc3ccccc13)C2 [PKL-A183] | 48.6 | 67.2 | 72.3 |  |  | 
C=CC(=O)N1CCc2c(sc(NC(=O)c3cccc4ccccc34)c2C#N)C1 [PKL-A190] | 24.2 | 31.8 | 76.2 |  |  | 
N#Cc1c(NC(=O)c2cccc3ccccc23)sc2c1CCN(C(=O)c1cccc(F)c1)C2 [PKL-A192] | 22.9 | 38 | 60.1 |  |  | 
N#Cc1ccc(C(=O)N2CCc3c(sc(NC(=O)c4cccc5ccccc45)c3C#N)C2)cc1 [PKL-A193] | 23.4 | 37.6 | 62.3 |  |  | 
C=CCN1CCc2c(sc(NC(=O)c3cccc4ccccc34)c2C#N)C1 [PKL-B129] | 35.5 | 49.9 | 71.2 |  |  | 
N#Cc1c(NC(=O)c2cccc3ccccc23)sc2c1CCN(CC(=O)c1ccccc1)C2 [PKL-B130] | 16.8 | 26.2 | 64.1 |  |  | 
CC(C)CCN1CCc2c(sc(NC(=O)c3cccc4ccccc34)c2C#N)C1 [PKL-B133] | 28.1 | 40.6 | 69.3 |  |  | 
N#Cc1c(NC(=O)c2cccc3ccccc23)sc2c1CCN(CCn1cnc3ccccc31)C2 [PKL-B153, N-(6-(2-(1H-benzo[d]imidazol-1-yl)ethyl)-3-cyano-4,5,6,7-tetrahydrothieno[2,3c]pyridin-2-yl)-1-naphthamide] | 34.3 | 46.4 | 74 |  |  | 
N#Cc1c(NC(=O)c2cccc3ccccc23)sc2c1CCN(CC(=O)NC1CCOCC1)C2 [PKL-B164] | 36.8 | 49.6 | 74.1 |  |  | 
C#Cc1cccc(NC(=O)CN2CCc3c(sc(NC(=O)c4cccc5ccccc45)c3C#N)C2)c1 [PKL-B170] | 55.6 | 84.2 | 66 |  |  | 
N#Cc1c(NC(=O)c2cccc3ccccc23)sc2c1CCN(CC(=O)Nc1ccccc1)C2 [PKL-B173] | 34.7 | 49 | 70.8 |  |  | 
